Test results taken from patent US9622990B2, “Method for inhibiting cancer cell growth” (priority 2013, dated 2017).
Converted amounts (≈) assume the structure as drawn.

Assays:
Type in all cases: cell-based
[1] = tested on: A549 cell line (lung cancer); assay: MTT cell viability assay, A549; settings: Homo sapiens, 48 hours, read-out: half maximal inhibitory concentration (IC50), A549
Method: (§1) Cell proliferation of A549 cell line (lung cancer), CT26 cell line (colon cancer), DU145 cell line (prostate cancer), HepG2 cell line (liver cancer), MDCK cell line (kidney from canine), PC3 cell line (prostate cancer), MDA-MB-231 cell line (breast cancer) and MCF-7 cell line (breast cancer) was assessed by MTT cell viability assay.
(§2) Above cell lines were cultured in determined medium for 24 hours. Proliferative cells were washed with PBS solution, treated with trypsin-EDTA (1×), centrifuged at 1,200 rpm for 5 min, precipitated the cells and discarded supernatant. The cells were resuspended with 10 ml of fresh medium, and then loaded to 96-well plate. While the assay initiated, 0.01˜200 μg/ml of Antrodia camphorata extract was added in each well, and the plate was incubated for 48 hours, at 37° C., 5% CO2. Each wall was added with 2.5 mg/ml MTT reagent in the dark. After 4 hours of reaction, 100 μl lysis buffer were added to each wall to terminate the reaction. […] The experiment data was represented by means±SD. All data was statistically analyzed by paired-t test, and a P-value less than 0.05 was considered significant.

[2] = tested on: CT26 cell line (colon cancer); assay: MTT cell viability assay, CT26; settings: Mus musculus, 48 hours, read-out: half maximal inhibitory concentration (IC50), CT26
Method: as §1, §2

[3] = tested on: DU145 cell line (prostate cancer); assay: MTT cell viability assay, DU145; settings: Homo sapiens; DU-145, MTT, 48 hours; read-out: half maximal inhibitory concentration (IC50), DU-145
Method: as §1, §2

[4] = tested on: HepG2 cell line (liver cancer); assay: MTT cell viability assay, HepG2; settings: Homo sapiens, 48 hours, read-out: half maximal inhibitory concentration (IC50), HepG2
Method: as §1, §2

[5] = tested on: MDCK cell line (kidney from canine); assay: MTT cell viability assay, MDCK; settings: Canis lupus familiaris, 48 hours, read-out: half maximal inhibitory concentration (IC50), MDCK
Method: as §1, §2

[6] = tested on: PC3 cell line (prostate cancer); assay: MTT cell viability assay, PC3; settings: Homo sapiens, PC-3, 48 hours, read-out: half maximal inhibitory concentration (IC50), PC3
Method: as §1, §2

[7] = tested on: MDA-MB-231 cell line (breast cancer); assay: MTT cell viability assay, MDA-MB-231; settings: Homo sapiens; MDA-MB-231, MTT, 48 hours; read-out: half maximal inhibitory concentration (IC50), MDA-MB-231
Method: as §1, §2

[8] = tested on: MCF-7 cell line (breast cancer); assay: MTT cell viability assay, MCF-7; settings: Homo sapiens, MCF7; MCF-7, MTT, 48 hours; read-out: half maximal inhibitory concentration (IC50), MCF-7
Method: as §1, §2

various tumor cells = assay: MTT cell viability assay, statements over all cell lines; settings: for anti cancer activity, in words: summary of table 9
Method: as §1, §2
The symbols used in tables respectively represent: 0˜25% cell viability: +/−; 25˜50% cell viability: +; 50˜75% cell viability: ++, 75˜100% cell viability: +++, >100% cell viability: ++++. […] In this experiment, when the drug concentration was diluted to […], DMSO concentration was 0.5%.
Accordingly, above extracts can be used for treating cancers, such as lung cancer, colon cancer, prostate cancer, liver cancer and breast cancer, and the effective compounds contained in those extracts also can be purified.
The half maximal inhibitory concentration (IC50) is a measure of the effectiveness of a compound in inhibiting biological or biochemical function. This quantitative measure indicates how much of a particular drug or other substance (inhibitor) is needed to inhibit a given biological process (e.g. cell apoptosis-inducing activity of a compound) by half. […]

| Compound | IC50 [1] [µg/mL] | IC50 [2] [µg/mL] | IC50 [3] [µg/mL] | IC50 [4] [µg/mL] | IC50 [5] [µg/mL] | IC50 [6] [µg/mL] | IC50 [7] [µg/mL] | IC50 [8] [µg/mL] | anti cancer activity, in words (various tumor cells) | IC50 value of the solvent (50% cell death) (various tumor cells; DMSO content of the diluted drug, cell line not stated) [%] |
| --- | --- | --- | --- | --- | --- | --- | --- | --- | --- | --- |
| COC1=C(OC)[C@H](O)[C@H](C/C=C(\C)CC/C=C(\C)CC(O)C=C(C)C)[C@@H](C)C1=O (stereo partly shown) [Antrocamol LT1, 4-hydroxy-5-[9-hydroxy-3,7,11-trimethyldodeca-2,6,10-trienyl]-2,3-dimethoxy-6-methyl-cyclohex-2-enone] | 0.093 ± 0.003 (≈ 0.229 µM) | 0.07 ± 0.006 (≈ 0.172 µM) | 0.057 ± 0.009 (≈ 0.14 µM) | 0.014 ± 0.001 (≈ 0.0344 µM) | > 10 | 0.057 ± 0.002 (≈ 0.14 µM) | 0.98 ± 0.05 (≈ 2.41 µM) | 0.99 ± 0.08 (≈ 2.44 µM) | predominant anti cancer activity |  |
| COC1=C(OC)[C@H](OC(C)=O)[C@H](C/C=C(\C)CC/C=C(\C)CC(O)C=C(C)C)[C@@H](C)C1=O (stereo partly shown) [Antrocamol LT2, 4-acetoxy-5-[9-hydroxy-3,7,11-trimethyldodeca-2,6,10-trienyl]-2,3-dimethoxy-6-methyl-cyclohex-2-enone] | 1.06 ± 0.22 (≈ 2.36 µM) | 0.8 ± 0.03 (≈ 1.78 µM) | 0.91 ± 0.08 (≈ 2.03 µM) | 0.59 ± 0.02 (≈ 1.32 µM) | > 10 | 0.69 ± 0.06 (≈ 1.54 µM) | 1.03 ± 0.05 (≈ 2.3 µM) | 0.95 ± 0.11 (≈ 2.12 µM) | predominant anti cancer activity |  |
| C[S+](C)[O-] [DMSO] |  |  |  |  |  |  |  |  |  | 2.34 |
